Key:
RARβ = conditions: RARβ2 isoform; cited from earlier work
TERA2.cl.SP12 stem cells = assay: Real-time PCR for neuronal markers NeuroD1 and PAX6; format: cell-based, human; conditions: 10 μM, Fig. 7B; for induction of PAX6 expression, rank order: up to 7 days
Experimental: Second, NeuroD1 and PAX6 are retinoid-induced transcription factors involved in regulating neuronal differentiation,[49], [50] and are expressed in neurons derived from TERA2.cl.SP12 stem cells.
(§1) Real time PCR was carried out immediately after treatment on both cell line lysates with 0.25% trypsin–EDTA. TERA-2.cl.SP12 cells were seeded at a density of 1 × 10^6 cells per 25 cm^2 flask, 12–24 h before treatment. […] SH-SY5Y cells were seeded at a density of 1 × 10^6 cells per 25 cm^2 flask, 12–24 h before treatment. […] Commercial RNA extraction kits (Qiagen) and reverse transcription (Applied Biosystems) kits were purchased and procedures used according to the manufacturer instructions. Real time PCR was performed using the TaqMan® Universal PCR Master Mix (Life technologies) and TaqMan® gene expression system (Applied Biosystems) based on probe sets to the specific genes to be analysed. Genecodes used are as follows: RARβ (Hs00233407_m1), CYP26-A1 (Hs00175627_m1), RARα (Hs00940448_g1), RARγ (Hs01559234_m1), PAX-6 (Hs01088112_m1), NeuroD1 (Hs01922995_s1). GADPH (Hs02758991_g1) and ACTB (Hs99999903_m1) were used as internal control genes for TERA-2.cl.SP12 and SH-SY5Y, respectively.

[1] = tested on: SH-SY5Y human neuroblastoma cells; assay: Retinoid-induced gene expression (RARα, RARβ, RARγ, CYP26A1) by real-time PCR; format: cell-based; conditions: for induction of RARα and RARγ expression: 10 μM retinoid, over a 12 h period, Fig. 8A; for induction of RARβ expression, rank order / induction of CYP26A1 expression, rank order: dose-response 1 nM to 1 μM, 8 h treatment, Fig. 8B; for induction of RARβ expression, rank order: all doses; for induction of CYP26A1 expression, rank order: doses <1 μM
Experimental: As an additional assay of biological activity, short-term changes in expression of four genes in SH-SY5Y cells was employed; a neuroblastoma-derived lineage that undergoes neuronal differentiation in response to retinoid treatment. The four genes assayed, RARα, RARβ, RARγ and CYP26A, have RAREs associated with their promoters and may be directly regulated by retinoids.[51], [52]
as §1

SMILES: CCOCCOc1nc(-c2ccc(C(=O)O)cc2)sc1C [GZ18]
- RAR-type selectivity (RARβ): RARβ2-specific retinoid
- NeuroD1 mRNA expression, rank order (TERA2.cl.SP12 stem cells; after 5 days): GZ25 > GZ18 > ATRA
- induction of PAX6 expression, rank order (TERA2.cl.SP12 stem cells): GZ25 ≫ ATRA > GZ18
- time-course of RARβ and CYP26A1 induction ([1]; 10 μM retinoid treatment): less active in comparison to either GZ25 or ATRA
- induction of RARα and RARγ expression [1]: lower levels of induction
- induction of RARβ expression, rank order [1]: GZ25 ≫ ATRA > GZ18
- induction of CYP26A1 expression, rank order [1]: GZ25 > GZ18 > ATRA

SMILES: Cc1sc(-c2ccc(C(=O)O)cc2)nc1-c1ccc2c(c1)C(C)(C)CCC2(C)C [GZ25]
- NeuroD1 mRNA expression, rank order (TERA2.cl.SP12 stem cells; after 5 days): GZ25 > GZ18 > ATRA
- NeuroD1 mRNA expression, rank order (TERA2.cl.SP12 stem cells; after 7 days): ATRA > GZ25
- induction of PAX6 expression, rank order (TERA2.cl.SP12 stem cells): GZ25 ≫ ATRA > GZ18
- induction of RARα and RARγ expression [1]: lower levels of induction
- induction of RARβ expression, rank order [1]: GZ25 ≫ ATRA > GZ18
- induction of CYP26A1 expression, rank order [1]: GZ25 > GZ18 > ATRA
